From PubChem BioAssay AID1996 come the findings set out here.

Converted amounts (≈) assume the structure as drawn.

One may read the kinetic solubility as the concentration staying in solution when a stock, usually in DMSO, is diluted into the medium.

For the series the following is noted: buffer; pH 7.4; 200.0 µM.
With `Cc1cc(C)c2c(CN3CCC(C)CC3)cc(=O)oc2c1C`, the solubility (kinetic) came to 1.1 µg/mL (≈ 3.67 µM).

In turn, `Nc1ncnc(Nc2ccccc2)n1` yielded a kinetic solubility greater than 28.1 µg/mL.

For the molecule `O=C(Cc1ccc([N+](=O)[O-])cc1)NCC1CCCO1` (configuration not stated), the solubility (kinetic) was greater than 39.6 µg/mL.

Molecule `COCC(=O)NC1CCCCCC1` gave a solubility (kinetic) greater than 27.8 µg/mL.

With `C[N+](C)(C)CCOC(=O)CBr.[Br-]`, the solubility (kinetic) is greater than 45.8 µg/mL.

For the molecule `CN(C)c1nc(OCc2ccccc2)c2ncc(=O)[nH]c2n1`, the kinetic solubility came out at 1.2 µg/mL (≈ 4.04 µM).

Molecule `COc1ccc(CNS(=O)(=O)NCc2ccccc2F)cc1` yielded a kinetic solubility of 22.3 µg/mL (≈ 68.7 µM).

In the case of `CN(CC(=O)NCCc1ccc(S(N)(=O)=O)cc1)CC(=O)Nc1ccc(F)c(F)c1F`, the solubility (kinetic) was greater than 68.8 µg/mL.

`CC(C)C(OC(=O)c1cccs1)C(=O)NCc1ccccc1` (configuration not stated) returned a kinetic solubility of 29.4 µg/mL (≈ 92.6 µM).

In turn, `O=C(CN1CCCC1)Nc1c(C(=O)C2CC2)oc2ccccc12` showed a solubility (kinetic) of 31.8 µg/mL (≈ 102 µM).

In turn, `CN(C)c1ccc(CNCC2CCCO2)cc1.Cl` (configuration not stated) displayed a kinetic solubility greater than 40.6 µg/mL.

`Cc1ccc(Cl)cc1NC(=O)COC(=O)CSc1ccccc1`: the kinetic solubility turned out to be 7.2 µg/mL (≈ 20.6 µM).

`CC1Oc2ccccc2N(CC(=O)NC2CC2)C1=O` (configuration not stated): the solubility (kinetic) is greater than 39 µg/mL.

The molecule `N#C/C(=C\c1cccnc1)C(=O)Nc1ccc(O)cc1F` displayed a kinetic solubility greater than 42.5 µg/mL.

`Cc1ccc(S(=O)(=O)NCC(=O)NCC2CCCCC2)cc1C`: the kinetic solubility was greater than 50.8 µg/mL.

Consider `CC(C(=O)O/N=C(\N)c1cccnc1)c1ccc([N+](=O)[O-])cc1` (configuration not stated), for which the solubility (kinetic) amounted to 41.2 µg/mL (≈ 131 µM).

With `Cc1ccc2nc(SC(C)C(=O)NC3CCCC3)[nH]c2c1` (configuration not stated), the solubility (kinetic) is greater than 45.5 µg/mL.

For `COc1ccc(CNC(=S)Nc2ccccc2)cc1`, the solubility (kinetic) is greater than 40.9 µg/mL.

`CN(C)S(=O)(=O)Nc1cccc(-c2cn3c(n2)SCC3)c1` yielded a kinetic solubility greater than 48.7 µg/mL.

With `CCCN(CC(=O)Nc1ccccc1C)C(=O)c1cnc(C)cn1`, the solubility (kinetic) was greater than 49 µg/mL.

On to `O=C(O)Cc1csc(-c2ccc(F)cc2)n1`, for which the solubility (kinetic) was determined as 32.2 µg/mL (≈ 136 µM).

For `O=C(CSc1cc(Cl)ccc1Cl)NC1CC1`, the kinetic solubility was 37.7 µg/mL (≈ 137 µM).

`Cc1ccc(C(=O)CNc2ccc(C)cc2C)cc1` yielded a kinetic solubility of 2.8 µg/mL (≈ 11.1 µM).

In the case of `CC(=O)N1CCN(CC(c2ccccc2)c2ccccc2)CC1`, the solubility (kinetic) worked out at 38.7 µg/mL (≈ 125 µM).

The molecule `COC(=O)Cc1c(O)ccn(CCc2c[nH]c3ccc(OC)cc23)c1=O` displayed a solubility (kinetic) greater than 53.5 µg/mL.

Turning to `O=C(Nc1ccc(N2CCCCCC2)cc1)c1ccc[nH]1`, the solubility (kinetic) was found to be 18.7 µg/mL (≈ 66 µM).

Consider `CC(=O)c1c(C)[nH]c(C(=O)NCc2cccc(Cl)c2)c1C`, for which the kinetic solubility was 18.9 µg/mL (≈ 62 µM).

Turning to `C=C(C)Cn1cnc2c(oc3nc4c(cc32)CCCC4)c1=O`, the kinetic solubility amounted to 2.5 µg/mL (≈ 8.46 µM).

Take `Cc1cc(C)cc(C(=O)Nc2ccc(N3CCCC3)cc2)c1`: the kinetic solubility was 0.7 µg/mL (≈ 2.38 µM).

Take `Br.CCc1ccc(C2=CSC3=NCCN23)cc1`: the kinetic solubility is greater than 46.7 µg/mL.

Take `CC(C)OC(=O)/C(C#N)=C/c1cn(C)c2ccccc12`: the solubility (kinetic) was 3.9 µg/mL (≈ 14.5 µM).

In turn, `O=[N+]([O-])c1ccc(N2CCN(c3ccc(F)cc3)CC2)cc1` came in with a solubility (kinetic) of 0.3 µg/mL (≈ 0.996 µM).

In the case of `Cc1cc(C(=O)OCC(=O)Nc2ccccc2Br)c(C)o1`, the kinetic solubility was determined as 4.4 µg/mL (≈ 12.5 µM).

The molecule `NC(=O)c1ccc(N=Cc2c(O)ccc3ccccc23)cc1` had a solubility (kinetic) of 10.3 µg/mL (≈ 35.5 µM).

For the molecule `Nc1cc(C(F)(F)F)ccc1N1CCOCC1`, the kinetic solubility worked out at 36.7 µg/mL (≈ 149 µM).

As for `CC(SCc1ccccc1)C(=O)Nc1ccccc1F` (configuration not stated), the solubility (kinetic) was determined as 35.1 µg/mL (≈ 121 µM).

`CCCC(=O)N(Cc1cc(=O)[nH]c2ccccc12)c1ccccc1C` returned a kinetic solubility of 41.1 µg/mL (≈ 123 µM).

With `O=C(CC1C(=O)NCCN1Cc1cccc(F)c1)NC1CCC1` (configuration not stated), the kinetic solubility is 42 µg/mL (≈ 132 µM).

For `Cn1c(=O)[nH]c(=O)c2cc(C(=O)c3cc(F)ccc3O)cnc21`, the solubility (kinetic) amounted to 8 µg/mL (≈ 25.4 µM).

`CCC(Oc1ccccc1)C(=O)Nc1ncc([N+](=O)[O-])s1` (configuration not stated) registered a kinetic solubility greater than 46.1 µg/mL.

The molecule `Cc1csc(Nc2ccc(C(=O)O)cc2)n1` yielded a solubility (kinetic) greater than 35.1 µg/mL.

In turn, `O=C(NCCO)/C(=C\c1ccco1)NC(=O)c1ccco1` gave a kinetic solubility of 35 µg/mL (≈ 121 µM).

In the case of `Cc1ccc(S(=O)(=O)N2CCOCC2)cc1C(=O)OCC(=O)N1CCCCC1`, the solubility (kinetic) was greater than 61.6 µg/mL.

In the case of `O=C(CNC(=O)c1ccc(F)cc1)NCc1ccccn1`, the solubility (kinetic) is greater than 43.1 µg/mL.

`CCC(Oc1ccc(F)cc1)C(=O)N1CCCCCCC1` (configuration not stated) displayed a solubility (kinetic) of 34.8 µg/mL (≈ 119 µM).

The molecule `Cc1ccc(S(=O)(=O)N2C(=O)c3cccc4cccc2c34)cc1` showed a kinetic solubility of 3.7 µg/mL (≈ 11.4 µM).

`COc1cccc(C(=O)NCCCn2ccnc2)c1` displayed a solubility (kinetic) greater than 38.9 µg/mL.

On to `COC(=O)CC1C(=O)NCCN1C(=O)c1ccc([N+](=O)[O-])cc1` (configuration not stated), for which the solubility (kinetic) is greater than 48.2 µg/mL.

Take `Cc1ccc2[nH]cc(CCNC(=O)C3CCCO3)c2c1` (configuration not stated): the kinetic solubility is greater than 40.9 µg/mL.

For the molecule `CN(CC(=O)Nc1cccc(S(=O)(=O)N2CCCC2)c1)Cc1ccccc1`, the solubility (kinetic) turned out to be 17.8 µg/mL (≈ 45.9 µM).

The molecule `COc1cccc(/C=C(\C)C(=O)c2c(C)cc(C)[nH]c2=O)c1OC` had a kinetic solubility greater than 49.1 µg/mL.

`CCCc1ccc(C(=O)/C=C/N(C)C)cc1` showed a solubility (kinetic) of 26.9 µg/mL (≈ 124 µM).
